Usually IC50 stands for the concentration at which inhibition is half-maximal.

Each structure is given as a SMILES string. A value given as a limit tells only on which side of the number the result lay.

In series [1] the target is T1, CDK1/CyclinB (Homo sapiens, UniProt P06493).
T1 construct: purchased Upstate Discovery
Nature of the series: Activated CDK1/CyclinB kinase inhibitory activity assay. In kind it is biochemical. As for the experimental part:
(§1) The reaction is allowed to proceed for 2 to 4 hours before being stopped with an excess of ortho-phosphoric acid (5 μl at 2%). γ^33P-ATP which remains unincorporated into the histone H1 is separated from phosphorylated histone H1 on a Millipore MAPH filter plate. The wells of the MAPH plate are wetted with 0.5% orthophosphoric acid, and then the results of the reaction are filtered with a Millipore vacuum filtration unit through the wells. Following filtration, the residue is washed twice with 200 μl of 0.5% orthophosphoric acid. Once the filters have dried, 20 μl of Microscint 20 scintillant is added, and then counted on a Packard Topcount for 30 seconds.
CDK1/CyclinB assay is identical to the CDK2/CyclinA above except that CDK1/CyclinB (Upstate Discovery) is used and the enzyme is diluted to 6.25 nM.

For series [2], the target named is CDK2/CyclinA (Homo sapiens, UniProt P24941). As to the kind of experiment: Activated CDK2/CyclinA kinase inhibitory activity assay. The series is classed as biochemical. How it is done: as §1
A short description of series [3]: Salt stability at 40° C. 75% RH followed by XRPD. In kind it is physicochemical. The note with it: 40° C. and 75% RH over the period of 1-2 month.
Experimental: Approximately 15 mg of samples for the stability study were gently ground by marble mortar and transferred to a Petri dish in a thin layer. Samples were then placed in sealed containers containing saturated NaCl solution with an excess of undissolved NaCl. […] Samples were analysed by X-ray powder diffraction (XRPD) in regular intervals. Samples for XRPD data collection were loaded into crystallographic capillary (from Hampton Research, made of Quartz, diameter=0.4 mm). […] 2D Images were collected while spinning φ axis with a detector to crystal distance of 250 mm. Data collection was controlled by CrystalClear software and 2D images were converted to 1D plot (2θ vs. Intensity) by Datasqueeze (intensity averaged over the azimuthal angle 0<χ<360° for 2θ range 3-30° in 0.01° steps).
The test system of series [4] is HCT-116 cell line. As to the kind of experiment: Anti-proliferative activity (Alamar Blue assay). In kind it is cell-based, human. As for the experimental part:
The anti-proliferative activities of compounds of the invention can be determined by measuring the ability of the compounds to inhibition of cell growth in a number of cell lines. Inhibition of cell growth is measured using the Alamar Blue assay (Nociari, M. M, Shalev, A., Benias, P., Russo, C. Journal of Immunological Methods 1998, 213, 157-167). The method is based on the ability of viable cells to reduce resazurin to its fluorescent product resorufin. For each proliferation assay cells are plated onto 96 well plates and allowed to recover for 16 hours prior to the addition of inhibitor compounds for a further 72 hours. At the end of the incubation period 10% (v/v) Alamar Blue is added and incubated for a further 6 hours prior to determination of fluorescent product at […]. In the case of the non-proliferating cell assay cells are maintained at confluence for 96 hour prior to the addition of inhibitor compounds for a further 72 hours. The number of viable cells is determined by Alamar Blue assay as before. In addition, any morphological changes are recorded. Cell lines can be obtained from the ECACC (European Collection of cell Cultures).
In particular, compounds of the invention were tested against the HCT-116 cell line (ECACC Reference: 91091005) derived from human colon carcinoma.
A general note: Resazurin is reduced to fluorescent resorufin, in cell work by metabolically active cells.

T1 sequence (P06493 whole entry): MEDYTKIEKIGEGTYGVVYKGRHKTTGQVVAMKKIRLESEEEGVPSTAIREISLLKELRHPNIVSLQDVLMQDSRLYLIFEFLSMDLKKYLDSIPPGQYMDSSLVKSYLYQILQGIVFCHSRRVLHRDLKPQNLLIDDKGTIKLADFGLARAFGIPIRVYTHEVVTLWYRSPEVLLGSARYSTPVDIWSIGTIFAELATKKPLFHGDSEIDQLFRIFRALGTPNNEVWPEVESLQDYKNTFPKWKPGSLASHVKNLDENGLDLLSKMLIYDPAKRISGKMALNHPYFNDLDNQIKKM
T1 sequence (P14635 whole entry partner): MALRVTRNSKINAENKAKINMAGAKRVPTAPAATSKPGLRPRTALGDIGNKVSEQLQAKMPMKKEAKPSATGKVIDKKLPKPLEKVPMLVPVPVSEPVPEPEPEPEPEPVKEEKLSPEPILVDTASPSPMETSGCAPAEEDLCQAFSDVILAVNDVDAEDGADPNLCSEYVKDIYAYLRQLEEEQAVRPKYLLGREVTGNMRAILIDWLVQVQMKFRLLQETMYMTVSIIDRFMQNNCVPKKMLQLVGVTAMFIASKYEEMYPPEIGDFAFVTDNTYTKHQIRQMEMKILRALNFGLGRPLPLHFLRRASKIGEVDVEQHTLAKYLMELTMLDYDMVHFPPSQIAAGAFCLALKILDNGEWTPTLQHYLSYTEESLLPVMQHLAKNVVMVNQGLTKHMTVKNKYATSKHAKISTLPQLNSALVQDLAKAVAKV

Take `O=C(Nc1ccc(F)cc1F)Nc1c[nH]nc1-c1nc2cc(CN3CCOCC3)ccc2[nH]1` [Example 46]: the IC50 in series [1] was under 10 µM; in series [2] it was under 1000 nM.
Regarding `O.O.O=C(Nc1c[nH]nc1-c1nc2cc(CN3CCOCC3)ccc2[nH]1)NC1CC1` [dihydrate free base (FB2), 1-cyclopropyl-3-[3-(5-morpholin-4-ylmethyl-1H-benzoimidazol-2-yl)-1H-pyrazol-4-yl]-urea free base dihydrate], the “change of XRPD pattern on storage” value in series [3] is “do not change”.
In the case of `O=C(Nc1cc(F)cc(F)c1)Nc1c[nH]nc1-c1nc2cc(CN3CCOCC3)ccc2[nH]1` [Example 53], the values for the concentration for half-maximal inhibition (IC50) in series [1] and in series [2] were under 10 µM and under 10000 nM, respectively.
For `COc1cc2nc(-c3n[nH]cc3NC(=O)c3ccoc3CN(C)C)[nH]c2cc1OC` [Example 20] the same measures were under 10 µM and under 1000 nM.
In series [1], `COc1cc2nc(-c3n[nH]cc3NC(=O)C3CN(C(C)C)CCO3)[nH]c2cc1OC` (racemic) [Example 16, N-[3-(5,6-dimethoxy-1H-benzimidazol-2-yl)-1H-pyrazol-4-yl]-rac-4 isopropyl-2-morpholine carboxamide] returned an IC50 of under 10 µM.
On the same count and under the same terms, in the case of `O=C(Nc1c[nH]nc1-c1nc2cc(CN3CCOCC3)ccc2[nH]1)N1Cc2ccccc2C1` [Example 28] it was under 10 µM; in that of `CN(C(=O)Nc1c[nH]nc1-c1nc2cc(CN3CCOCC3)ccc2[nH]1)c1ccccc1F` [Example 43], under 50 µM.
`O=C(Nc1c[nH]nc1-c1nc2cc(CN3CCOCC3)ccc2[nH]1)NC1CC1` [Example 24, 1-cyclopropyl-3-[3-(5-morpholin-4-ylmethyl-1H-benzoimidazol-2-yl)-1H-pyrazol-4-yl]-urea]: the IC50 in series [1] was under 10 µM; in series [4] (Homo sapiens, HCT-116, 72 hours compound, Alamar Blue, read-out: IC50, inhibition of cell growth, HCT-116 cell line), under 1000 nM. The “minimum concentration at which polyploidy or multinucleation is observed” value in series [4] (HCT-116 cell line) is “less than 100 nM”. Besides, the “change of XRPD pattern on storage” value in series [3] is listed as “do not change”.
Consider `O=C(Nc1cccc(F)c1)Nc1c[nH]nc1-c1nc2cc(CN3CCOCC3)ccc2[nH]1` [Example 50], for which the half-inhibitory concentration (IC50) in series [1] is under 10 µM.
On to `CC(C)(C)NC(=O)Nc1c[nH]nc1-c1nc2cc(CN3CCOCC3)ccc2[nH]1` [Example 45], for which the IC50 in series [1] was under 10 µM; in series [2], under 10000 nM.
With `O=C(Nc1c[nH]nc1-c1nc2cc(CN3CCOCC3)ccc2[nH]1)NN1CCCC1` [Example 30], the concentration for half-maximal inhibition (IC50) in series [2] was under 1000 nM.
Consider `COc1cc2nc(-c3n[nH]cc3NC(=O)C3CCCN(C)C3)[nH]c2cc1OC` (racemic) [Example 17, N-[3-(5,6-dimethoxy-H-benzimidazol-2-yl)-1H-pyrazol-4-yl]-rac-1-methyl-piperidine 3-carboxamide], for which the IC50 in series [1] is under 10 µM.
Same read-out and setting: in the case of `O=C(NCC1CC1)Nc1c[nH]nc1-c1nc2cc(CN3CCOCC3)ccc2[nH]1` [Example 34] it was under 10 µM.
Same read-out and setting: the same measure for `CN(C(=O)Nc1c[nH]nc1-c1nc2cc(CN3CCOCC3)ccc2[nH]1)c1ccc(F)cc1` [Example 37, 1-(4-fluorophenyl)-1-methyl-3-[3-(5-morpholin-4-ylmethyl-1H-benzimadazol-2-yl)-1H-pyrazol-4-yl]-urea]: under 50 µM.
The same measure, in the same setting: in the case of `O=C(NCC1CCOCC1)Nc1c[nH]nc1-c1nc2cc(CN3CCOCC3)ccc2[nH]1` [Example 26] it was under 50 µM.
`O=C(NCc1c(F)cccc1F)Nc1c[nH]nc1-c1nc2cc(CN3CCOCC3)ccc2[nH]1` [Example 23] showed an IC50 in series [1] of under 50 µM.
The same measure, in the same setting: the same measure for `COc1ccc(Cl)cc1NC(=O)Nc1c[nH]nc1-c1nc2cc(CN3CCOCC3)ccc2[nH]1` [Example 56]: under 10 µM.
Same read-out and setting: in the case of `O=C(Nc1c[nH]nc1-c1nc2cc(CN3CCOCC3)ccc2[nH]1)[C@@H]1CCCO1` [Example 13] it was under 1 µM.
For the compound `O=C(Nc1c[nH]nc1-c1nc2cc(CN3CCOCC3)ccc2[nH]1)N1CCc2ccccc21` [Example 29], the IC50 in series [1] was under 10 µM.
In the case of `O=C(Nc1ccccc1F)Nc1c[nH]nc1-c1nc2cc(CN3CCOCC3)ccc2[nH]1` [Example 49], the IC50 in series [1] is under 10 µM.
The same measure, in the same setting: in the case of `O=C(Nc1c[nH]nc1-c1nc2cc(CN3CCOCC3)ccc2[nH]1)NC1CCOCC1` [Example 27] it was under 50 µM; in that of `N#CC(C(=O)Nc1c[nH]nc1-c1nc2cc(CN3CCOCC3)ccc2[nH]1)C1CC1` (stereo not shown) [Example 4, 2-Cyano-2-cyclopropyl-N-[3-(5-morpholin-4-ylmethyl-1H-benzoimidazol-2-yl)-1H-pyrazol-4-yl]-acetamide], under 1 µM.
As for `O=C(Nc1c[nH]nc1-c1nc2cc(CN3CCOCC3)ccc2[nH]1)C1CCOC1` (stereo not shown) [Example 9], the IC50 in series [1] is under 10 µM.
As for `O=C(Nc1c[nH]nc1-c1nc2cc(CN3CCOCC3)ccc2[nH]1)NN1CCOCC1` [Example 32], the IC50 in series [1] was under 10 µM; in series [2], under 1000 nM.
`CS(=O)(=O)CCNC(=O)Nc1c[nH]nc1-c1nc2cc(CN3CCOCC3)ccc2[nH]1` [Example 33] registered a half-maximal inhibitory concentration (IC50) in series [1] of under 50 µM.
The same measure, in the same setting: in the case of `Cc1nc2sccn2c1C(=O)Nc1c[nH]nc1-c1nc2cc(CN3CCOCC3)ccc2[nH]1` [Example 2, 6-methyl-imadazol[2,1-b]thiazole-5-carboxylic acid[3-(5-morpholin-4-ylmethyl-1H-benzoimidazol-2-yl)-1H-pyrazol-4-yl]-amide] it was under 50 µM; in that of `CN(C(=O)Nc1c[nH]nc1-c1nc2cc(CN3CCOCC3)ccc2[nH]1)c1cccc(F)c1` [Example 41], under 10 µM.
Consider `O=C(Nc1c[nH]nc1-c1nc2cc(CN3CCOCC3)ccc2[nH]1)C1CCCO1` (stereo not shown) [Example 11], for which the IC50 in series [1] is under 1 µM; in series [2], under 1000 nM.
Regarding `O=C(Nc1cc(F)ccc1F)Nc1c[nH]nc1-c1nc2cc(CN3CCOCC3)ccc2[nH]1` [Example 47], the IC50 in series [1] is under 1 µM; in series [2] it was under 1000 nM.
For `COc1ccc(Cl)cc1C(=O)Nc1c[nH]nc1-c1nc2cc(CN3CCN(C)CC3)ccc2[nH]1` [Example 22, 5-chloro-2-methoxy-N-{3-[5-(4-methyl-piperazin-1-ylmethyl)-1H-benzoimidazol-2-yl]-1H-pyrazol-4-yl}-benzamide] the same measures were under 1 µM and under 1000 nM.
For `O=C(Nc1c[nH]nc1-c1nc2cc(CN3CCOCC3)ccc2[nH]1)NC1CCCCC1` [Example 51] the same measures were under 10 µM and under 10000 nM.
For `COc1ccc(C#N)cc1C(=O)Nc1c[nH]nc1-c1nc2cc(CN3CCOCC3)ccc2[nH]1` [Example 1, 5-cyano-2-methoxy-N-[3-(5-morpholin-4-ylmethyl-1H-benzoimidazol-2-yl)-1H-pyrazol-4-yl]-benzamide] the same measures were under 1 µM and under 1000 nM.
`COc1cc2nc(-c3n[nH]cc3NC(=O)c3cc(Cl)cc(N4CCN(C)CC4)c3)[nH]c2cc1OC` [Example 18, 3-chloro-N-(5,6-dimethoxy-1H-benzoimidazol-2-yl)-1H-pyrazol-4-yl-5-(4-methyl-piperazin-1-yl)-benzamide]: in series [2], the concentration for half-maximal inhibition (IC50) is under 1000 nM.
In turn, `O=C(NCc1ccco1)Nc1c[nH]nc1-c1nc2cc(CN3CCOCC3)ccc2[nH]1` [Example 52] displayed an IC50 in series [1] of under 10 µM.
Same read-out and setting: in the case of `CC(C)(CO)C(=O)Nc1c[nH]nc1-c1nc2cc(CN3CCOCC3)ccc2[nH]1` [Example 8] it was under 10 µM.
For `O=C(Nc1ccc(F)cc1)Nc1c[nH]nc1-c1nc2cc(CN3CCOCC3)ccc2[nH]1` [Example 44, 1-(4-fluorophenyl)-N-[3-(5-morpholin-4-ylmethyl-1H-benzimidazol-2-yl)-1H-pyrazol-4-yl]-urea], the IC50 in series [2] was under 10000 nM.
In turn, `Cn1cccc(NC(=O)Nc2c[nH]nc2-c2nc3cc(CN4CCOCC4)ccc3[nH]2)c1=O` [Example 39] gave a concentration for half-maximal inhibition (IC50) in series [1] of under 10 µM.
Still for that read-out and setting: in the case of `N#CCC(=O)Nc1c[nH]nc1-c1nc2cc(CN3CCOCC3)ccc2[nH]1` [Example 3, 2-cyano-N-[3-(5-morpholin-4-ylmethyl-1H-benzoimidaxol-2-yl)-1H-pyrazol-4-yl]-acetamide] it was under 10 µM.
In the case of `O=C(CC1CC1)Nc1c[nH]nc1-c1nc2cc(CN3CCOCC3)ccc2[nH]1` [Example 10], the IC50 in series [1] was under 1 µM; in series [2], under 1000 nM.
In series [1], `CN(C(=O)Nc1c[nH]nc1-c1nc2cc(CN3CCOCC3)ccc2[nH]1)c1ccc(F)cc1F` [Example 42] displayed an IC50 of under 1 µM.
Regarding `O=C(Nc1c[nH]nc1-c1nc2cc(CN3CCOCC3)ccc2[nH]1)Nc1c(F)cc(F)cc1F` [Example 54], the values for the half-maximal inhibitory concentration (IC50) in series [1] and in series [2] were under 1 µM and under 1000 nM, respectively.
On the same counts, the results for `CN(C)NC(=O)Nc1c[nH]nc1-c1nc2cc(CN3CCOCC3)ccc2[nH]1` [Example 31] are under 10 µM and under 1000 nM.

Source of the values: patent US8110573B2, “Pyrazole compounds that modulate the activity of CDK, GSK and aurora kinases” (Astex Therapeutics Limited, priority 2004, dated 2012).
